Source: US20060205071A1, “Methods for ex-vivo expanding stem/progenitor cells” (priority 2003, published 2006)
“Also recorded” adds a separate entry of the source.

Assays:
[1] = test system: Hematopoietic stem/progenitor cells isolated from umbilical cord blood; assay: Ex vivo expansion of HSC with copper chelator in a gas permeable culture bag (static bioreactor); format: cell-based, human
Description: Hematopoietic stem/progenitor cells isolated from umbilical cord blood (UCB) mononuclear cells by magnetic activated cell sorting (MACS technology, Milteny, Bergisch-Gladbach, GmbH) were seeded in static bioreactors (gas permeable culture bags) at concentrations of 1×10^4 cells/ml in MEM-alpha with 10% Fetal Calf Serum (FCS) containing 50 ng/ml of the following cytokines: SCF, TPO, Flt-3, IL-6, with (TEPA) or without (control) added copper chelator tetraethylenepentamine (TEPA, Aldrich, Milwaukee Wis., USA) (5 μM), and incubated for at least three weeks in a 5% CO2 humidified incubator. […] Cell Cultures of Human Hematopoietic Stem/Progenitor Cells: Human umbilical cord blood cells were obtained from umbilical cord blood after normal full-term delivery (informed consent was given). MPB, or BM were obtained from donations (informed consent was given). Samples were either used fresh or collected and frozen according to well known cord blood cryopreservation protocol (Rubinstein et al. 1995) within 24 h postpartum for UCB or according to common practice regarding MPB and BM. Prior to cryopreservation, blood was sedimented for 30 minutes on […] Starch (hydroxyethyl starch) to remove most RBC. Prior to their use, the cells were thawed in Dextran buffer (Sigma, St. Louis, Mo., USA) containing 2.5% human serum albumin (HSA) (Bayer Corp. Elkhart, Ind., USA) and processed as described herein below. Following thawing, where indicated, the leukocyte-rich fraction was harvested and layered on Ficoll-Hypaque gradient (1.077 g/mL; Sigma Inc, St Louis Mo., USA), and centrifuged at 400X g for 30 minutes. The mononuclear cell fraction in the interface layer was then collected, washed three times, and re-suspended in phosphate-buffered saline (PBS) (Biological Industries, Bet HaEmek, Israel) containing 0.5% human serum albumin (HSA) (Bayer Corp. Elkhart, Ind., USA). The CD133^+ cell fraction was purified as follows: Either the mononuclear cell fraction was subjected to two cycles of immuno-magnetic separation using the “MiniMACS CD133 stem cell isolation kit” (Miltenyi Biotec, Auburn, Calif.) or the unfractionated preparation was isolated on the CliniMACS device using CD133^+ CliniMACS (Miltenyi Biotec, Auburn, Calif.) reagent, accordingly, following the manufacturer's recommendations (in the latter, the Ficoll-Hypaque gradient stage was omitted). The purity of the CD133^+ population thus obtained was 80-95%, as evaluated by flow cytometry. […]

[2] = test system: cord-blood-derived, bone marrow-derived, and peripheral blood derived stem and progenitor cells; conditions: grown without a feeder layer; cited from earlier work
[3] = test system: Hematopoietic stem/progenitor cells isolated from umbilical cord blood; assay: Long Term Culture-Colony Forming Cell (LTC-CFC) assay of bag-cultured HSC; format: cell-based, human
Description: FIGS. 1A-1C are a graphic representation of the ex-vivo expansion and inhibition of differentiation of stem cells in a static bioreactor. Hematopoietic stem/progenitor cells isolated from umbilical cord blood (UCB) mononuclear cells by magnetic activated cell sorting (MACS technology, Milteny, Bergisch-Gladbach, GmbH) were seeded in static bioreactors (gas permeable culture bags) at concentrations of 1×10^4 cells/ml in MEM-alpha with 10% Fetal Calf Serum (FCS) containing 50 ng/ml of the following cytokines: SCF, TPO, Flt-3, IL-6, with (TEPA) or without (control) added copper chelator tetraethylenepentamine (TEPA, Aldrich, Milwaukee Wis., USA) (5 μM), and incubated for at least three weeks in a 5% CO2 humidified incubator. […] CFUc frequency was calculated as number of CFUc per number of cells.
Self-Renewal Potential Evaluations: The self-renewal potential of stem cells was determined in vitro by long-term colony formation. […] The resulting colonies were scored after two weeks of incubation at 37° C. in a humidified atmosphere of 5% CO2 in air. […]
Calculations: Ex vivo expansion of TNC, CD133, CD133+CD34− cells and CFUc are reported either as cumulative numbers; number of cells per ml multiply by the final culture volume, or as fold-expansion; cumulative numbers divided by initial seeding cell number. CFUc frequency is calculated as number of colonies divided by cell number. […]

[4] = static bioreactor (VueLife FEP Teflon bag), compared with cells cultured without TEPA

Structure (SMILES): NCCNCCNCCNCCN [TEPA, tetraethylenepentamine]
- fold expansion of immature subpopulations of HSC (CD34+/CD38− and CD34+/lin−) ([1]; 5 μM TEPA, three weeks, static bioreactor (culture bag), vs cytokines without TEPA): dramatically increases; also recorded: predominance of undifferentiated CD34^+/CD38^− and CD34^+/lin^−
- fraction of self-renewing, undifferentiated cells ([1]; short and long term culture in a static bioreactor, compared with cytokine-only cultures): dramatically increased
- population of ex-vivo cultured stem and/or progenitor cells [1, 4]: greatly expanded
- fraction of CD34+ cell [2]: greatly enhanced
- long-term clonability [2]: greatly enhanced
- LTC-CFC numbers (colonogenic potential, CFUs) ([3]; 5 μM TEPA vs control cells grown with cytokines but not TEPA): at least one order of magnitude; also recorded: predominance of CFUs
- functional characteristics (colonogenic potential) [3, 4]: superior
